Earlier results in PMC4468036 (Bioorganic & medicinal chemistry, 2014).

Key:
δ receptor = conditions: read-out: IC50 at δ receptor; selectivity of ML140
μ receptor = conditions: read-out: IC50 at μ receptor; selectivity of ML140

Cc1ccc(S(=O)(=O)NCc2ccc(C(=O)NCCN(Cc3ccccc3)C(C)C)cc2)cc1 [ML140]
IC50 (δ receptor): > 32 µM | IC50 (μ receptor): > 24 µM
